Experimental data: patent US9068013B2, “Recombinant lectins, binding-site modified lectins and uses thereof” (SMART CELLS, INC., priority 2010, dated 2015)

Experiments:
[1] = Gel formation with glycogen (OD490 turbidity); conditions: 10 mg/ml rCon A, 10 or 1 mg/ml glycogen, pH 7 BES buffer, 10 minutes room temperature
Method: rCon A synthesised and purified according to Examples 42-44 were tested for their ability to form gels with glycogen. Alpha methyl mannose present in the samples was initially removed as follows. Samples were added to BioSpin 30 columns (Bio-Rad, Hercules, Calif.) that had been previously equilibrated with deionized water. The BioSpin columns were centrifuged for 4 minutes at 1000×g, and the resulting eluent contained rCon A samples that had been substantially desalted and alpha methyl mannose removed. Samples were combined and A280 measurements were obtained. Typically, the A280 measurements correlated with the A280 measurements obtained before removal of alpha methyl mannose.
The following assay was then used to measure gel formation with glycogen. Unmodified Oyster glycogen Type II (Sigma Aldrich, St. Louis, Mo.) was dissolved at 10 mg/ml in pH 7, 200 mM BES buffer (Sigma Aldrich, St. Louis, Mo.). […] The plate was allowed to develop at room temperature for 10 minutes, after which time the turbidity of each plate well was assayed using a commercially available microplate reader (SpectraMAX, Molecular Devices, Mountain View, Calif.) at a wavelength of 490 nm (OD490). […]

[2] = test system: fasted normal non-diabetic rats; experiment: Blood glucose depression profile after subcutaneous injection; format: in vivo, rat (Male Sprague-Dawley); conditions: non-diabetic SD rats
Method: (§1) Blood glucose values were measured using commercially available test strips (Precision Xtra, Abbott Laboratories, Abbott Park, Ill.).
as §1, §1
Blood glucose values were measured using commercially available test strips (Precision Xtra, Abbott Laboratories, Abbott Park, Ill.). In addition, blood from each timepoint was centrifuged at 4 C to collect the serum.

[3] = subcutaneous, 0.25 ml of 20 U of equivalent insulin/ml

SCI-1: recombinant Con A construct, amino acid sequence SEQ ID NO: 1 (wild-type Con A)
gel formation with glycogen [1]: formed gels with glycogen that were comparable to gels formed by native (plant-derived) Con A controls

insulin-dextran: comparative insulin-dextran (MW 70K) conjugate made by CNBr coupling, 10% (w/w) insulin
time serum glucose levels remain depressed post injection [2, 3]: at least five | time to reach the glucose nadir (Tnadir) [2, 3]: about 3 hours

insulin-glycogen: comparative conjugate of insulin with oyster glycogen (Type II) by CNBr coupling, Example 32
glucose lowering compared to the insulin-dextran conjugates ([2]; 2.5 equivalent U of insulin/kg subcutaneous): lower glucose levels much more rapidly and to a greater extent
